Test results: ChEMBL document CHEMBL2346597, “Use of core modification in the discovery of CC214-2, an orally available, selective inhibitor of mTOR kinase” (Bioorg Med Chem Lett, 2013)
Blank lines part the entries; values can stand above or below the compound they belong to. Active and inactive are the calls of the source. No cut-off for these calls is given here.

How the values were obtained:
[1] = Oral bioavailability in rat at 5 mg/kg; assay type: ADME, organism-based; details: in vivo
PC-3 [2] = test: cells; details: Homo sapiens, PC-3, 72 h
[3] = Inhibition of mTORC2 in human PC3 cells assessed as inhibition of AKTS473 phosphorylation after 1 hr by sandwich immunoassay; assay type: cell-based; details: PC-3, 1 h
mTORC1 = mTORC1 (Homo sapiens, UniProt P42345); test: Inhibition of mTORC1 in human PC3 cells assessed as inhibition of S6 phosphorylation after 1 hr by sandwich immunoassay; assay type: cell-based, PC-3
[4] = target: Insulin receptor (Homo sapiens) (UniProt P06213); test: Inhibition of IRK1 (unknown origin) assessed as remaining activity at 10 uM relative to control
PC-3 [5] = details: Homo sapiens
[6] = Plasma protein binding in CB17 SCID mouse xenografted with human PC3 cells at 30 mg/kg, po qd after 24 hrs; assay type: ADME, organism-based, PC-3; design: dose 30 mg/kg, route oral; details: read-out: PPB (converted)
Mus musculus [7] = test: In vivo inhibition of mTORC2 in human PC3 cells xenografted in CB17 SCID mouse assessed as inhibition of AKTS473 phosphorylation at 30 mg/kg, po qd measured at 24 hrs relative to vehicle-treated control; details: CB17, PC-3, po
[8] = Plasma concentration in CB17 SCID mouse xenografted with human PC3 cells at 30 mg/kg, po qd at 4 hrs; assay type: ADME, organism-based, PC-3; design: dose 30 mg/kg, route oral
[9] = Plasma concentration in CB17 SCID mouse xenografted with human PC3 cells at 30 mg/kg, po qd at 24 hrs; assay type: ADME, organism-based, PC-3; design: dose 30 mg/kg, route oral
Plasma [10] = test: Free plasma concentration in CB17 SCID mouse xenografted with human PC3 cells at 30 mg/kg, po qd at 8 hrs; assay type: ADME, organism-based, PC-3; design: dose 30 mg/kg, route oral; details: in vivo
Plasma [11] = test: Free plasma concentration in CB17 SCID mouse xenografted with human PC3 cells at 30 mg/kg, po qd at 4 hrs; assay type: ADME, organism-based, PC-3; design: dose 30 mg/kg, route oral; details: in vivo
PC-3 [12] = details: Homo sapiens; remark: listed apart in the source
[13] = AUC (0 to infinity) in rat at 2 mg/kg, iv; assay type: ADME, organism-based; design: time infinity, dose 2 mg/kg, route intravenous; details: plasma
[14] = Clearance in rat at 2 mg/kg, iv; assay type: ADME, organism-based; design: dose 2 mg/kg, route intravenous; details: in vivo
[15] = Drug uptake in tumor of CB17 SCID mouse xenografted with human PC3 cells at 30 mg/kg, po qd at 24 hrs; assay type: ADME, organism-based, Neoplasm, PC-3; design: dose 30 mg/kg, route oral; details: read-out: Drug uptake
[16] = Plasma concentration in CB17 SCID mouse xenografted with human PC3 cells at 30 mg/kg, po qd at 8 hrs; assay type: ADME, organism-based, PC-3; design: dose 30 mg/kg, route oral
[17] = target: Phosphatidylinositol 4,5-bisphosphate 3-kinase catalytic subunit alpha isoform (Homo sapiens, UniProt P42336); test: Inhibition of PI3Kalpha (unknown origin) by mobility shift assay
[18] = Drug uptake in tumor of CB17 SCID mouse xenografted with human PC3 cells at 30 mg/kg, po qd at 2 hrs; assay type: ADME, organism-based, Neoplasm, PC-3; design: dose 30 mg/kg, route oral; details: read-out: Drug uptake
Mus musculus [19] = test: In vivo inhibition of mTORC1 in human PC3 cells xenografted in CB17 SCID mouse assessed as inhibition of S6 phosphorylation at 30 mg/kg, po qd after 2 to 8 hrs relative to vehicle-treated control; assay type: functional; details: CB17, PC-3
[20] = Cmax in rat at 5 mg/kg, po; assay type: ADME, organism-based; design: dose 5 mg/kg, route oral; details: in vivo
[21] = Plasma concentration in CB17 SCID mouse xenografted with human PC3 cells at 30 mg/kg, po qd at 2 hrs; assay type: ADME, organism-based, PC-3; design: dose 30 mg/kg, route oral
[22] = Tmax in rat at 5 mg/kg, po; assay type: ADME, organism-based; design: dose 5 mg/kg, route oral; details: in vivo
Mus musculus [23] = test: In vivo inhibition of mTORC1 in human PC3 cells xenografted in CB17 SCID mouse assessed as inhibition of S6 phosphorylation at 30 mg/kg, po qd measured at 24 hrs relative to vehicle-treated control; assay type: functional; details: CB17, PC-3, 24 h
[24] = Mean residence time in rat at 2 mg/kg, iv; assay type: ADME, organism-based; design: dose 2 mg/kg, route intravenous; details: in vivo
Plasma [25] = test: Free plasma concentration in CB17 SCID mouse xenografted with human PC3 cells at 30 mg/kg, po qd at 2 hrs; assay type: ADME, organism-based, PC-3; design: dose 30 mg/kg, route oral; details: in vivo
[26] = Volume of distribution at steady state in rat at 2 mg/kg, iv; assay type: ADME, organism-based; design: dose 2 mg/kg, route intravenous; details: in vivo, read-out: Vdss
PC-3 [27] = details: Homo sapiens; remark: listed apart in the source
[28] = Drug uptake in tumor of CB17 SCID mouse xenografted with human PC3 cells at 30 mg/kg, po qd at 4 hrs; assay type: ADME, organism-based, Neoplasm, PC-3; design: dose 30 mg/kg, route oral; details: read-out: Drug uptake
PC-3 [29] = test: Antitumor activity against human PC3 cells xenografted in CB17 SCID mouse assessed as tumor growth inhibition at 25 mg/kg, po qd administered on day 11 post tumor implantation measured after 32 days relative to vehicle-treated control; assay type: functional; details: read-out: TGI
Mus musculus [30] = test: In vivo inhibition of mTORC2 in human PC3 cells xenografted in CB17 SCID mouse assessed as inhibition of AKTS473 phosphorylation at 30 mg/kg, po qd after 2 to 8 hrs relative to vehicle-treated control; details: CB17, PC-3, po
PC-3 [31] = details: Homo sapiens; remark: listed apart in the source
Plasma [32] = test: Free plasma concentration in CB17 SCID mouse xenografted with human PC3 cells at 30 mg/kg, po qd at 24 hrs; assay type: ADME, organism-based, PC-3; design: dose 30 mg/kg, route oral; details: in vivo
PC-3 [33] = test: Antitumor activity against human PC3 cells xenografted in CB17 SCID mouse assessed as tumor growth inhibition at 10 mg/kg, po qd administered on day 11 post tumor implantation measured after 32 days relative to vehicle-treated control; assay type: functional; details: read-out: TGI
[34] = AUC (0 to infinity) in rat at 5 mg/kg, po; assay type: ADME, organism-based; design: time infinity, dose 5 mg/kg, route oral; details: plasma
PC-3 [35] = test: Antitumor activity against human PC3 cells xenografted in CB17 SCID mouse assessed as tumor growth inhibition at 50 mg/kg, po qd administered on day 11 post tumor implantation measured after 32 days relative to vehicle-treated control; assay type: functional; details: read-out: TGI
Mus musculus [36] = test: Toxicity in CB17 SCID mouse xenografted with human PC3 cells at 10 to 50 mg/kg, po qd administered on day 11 post tumor implantation measured after 32 days; assay type: organism-based, PC-3; design: dose 10-50 mg/kg, route oral; details: in vivo
[37] = Drug uptake in tumor of CB17 SCID mouse xenografted with human PC3 cells at 30 mg/kg, po qd at 8 hrs; assay type: ADME, organism-based, Neoplasm, PC-3; design: dose 30 mg/kg, route oral; details: read-out: Drug uptake

Sequence of Phosphatidylinositol 4,5-bisphosphate 3-kinase catalytic subunit alpha isoform (P42336 whole entry, canonical isoform): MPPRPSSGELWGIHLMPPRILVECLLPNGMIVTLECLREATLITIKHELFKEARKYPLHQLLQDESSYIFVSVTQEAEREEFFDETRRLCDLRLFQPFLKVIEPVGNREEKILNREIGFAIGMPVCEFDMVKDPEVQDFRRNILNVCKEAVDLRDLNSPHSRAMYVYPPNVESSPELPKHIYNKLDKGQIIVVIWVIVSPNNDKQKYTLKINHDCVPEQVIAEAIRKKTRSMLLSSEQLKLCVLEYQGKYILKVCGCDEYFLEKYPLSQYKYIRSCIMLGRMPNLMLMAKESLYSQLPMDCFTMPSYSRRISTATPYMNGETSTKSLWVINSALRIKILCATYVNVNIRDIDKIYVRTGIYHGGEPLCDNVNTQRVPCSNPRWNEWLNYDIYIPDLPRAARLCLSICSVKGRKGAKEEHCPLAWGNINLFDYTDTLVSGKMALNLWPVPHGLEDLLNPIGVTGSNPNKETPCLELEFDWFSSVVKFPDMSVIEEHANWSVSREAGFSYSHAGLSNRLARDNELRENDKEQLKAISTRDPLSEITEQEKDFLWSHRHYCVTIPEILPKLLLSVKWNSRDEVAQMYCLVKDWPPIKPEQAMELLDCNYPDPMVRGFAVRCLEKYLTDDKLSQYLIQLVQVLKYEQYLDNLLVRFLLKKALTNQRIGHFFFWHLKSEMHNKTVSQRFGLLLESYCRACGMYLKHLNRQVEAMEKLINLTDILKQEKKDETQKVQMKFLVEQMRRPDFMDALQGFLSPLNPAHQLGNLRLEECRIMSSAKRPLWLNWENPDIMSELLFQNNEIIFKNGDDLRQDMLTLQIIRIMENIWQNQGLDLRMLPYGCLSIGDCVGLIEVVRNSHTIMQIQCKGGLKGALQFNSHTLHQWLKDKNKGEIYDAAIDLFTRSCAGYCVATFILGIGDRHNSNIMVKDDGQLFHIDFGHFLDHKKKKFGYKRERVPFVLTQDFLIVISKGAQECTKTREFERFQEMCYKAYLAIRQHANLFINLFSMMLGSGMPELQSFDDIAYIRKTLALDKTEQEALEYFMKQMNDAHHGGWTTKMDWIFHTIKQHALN
Sequence of Insulin receptor (Homo sapiens) (P06213 whole entry, looked up): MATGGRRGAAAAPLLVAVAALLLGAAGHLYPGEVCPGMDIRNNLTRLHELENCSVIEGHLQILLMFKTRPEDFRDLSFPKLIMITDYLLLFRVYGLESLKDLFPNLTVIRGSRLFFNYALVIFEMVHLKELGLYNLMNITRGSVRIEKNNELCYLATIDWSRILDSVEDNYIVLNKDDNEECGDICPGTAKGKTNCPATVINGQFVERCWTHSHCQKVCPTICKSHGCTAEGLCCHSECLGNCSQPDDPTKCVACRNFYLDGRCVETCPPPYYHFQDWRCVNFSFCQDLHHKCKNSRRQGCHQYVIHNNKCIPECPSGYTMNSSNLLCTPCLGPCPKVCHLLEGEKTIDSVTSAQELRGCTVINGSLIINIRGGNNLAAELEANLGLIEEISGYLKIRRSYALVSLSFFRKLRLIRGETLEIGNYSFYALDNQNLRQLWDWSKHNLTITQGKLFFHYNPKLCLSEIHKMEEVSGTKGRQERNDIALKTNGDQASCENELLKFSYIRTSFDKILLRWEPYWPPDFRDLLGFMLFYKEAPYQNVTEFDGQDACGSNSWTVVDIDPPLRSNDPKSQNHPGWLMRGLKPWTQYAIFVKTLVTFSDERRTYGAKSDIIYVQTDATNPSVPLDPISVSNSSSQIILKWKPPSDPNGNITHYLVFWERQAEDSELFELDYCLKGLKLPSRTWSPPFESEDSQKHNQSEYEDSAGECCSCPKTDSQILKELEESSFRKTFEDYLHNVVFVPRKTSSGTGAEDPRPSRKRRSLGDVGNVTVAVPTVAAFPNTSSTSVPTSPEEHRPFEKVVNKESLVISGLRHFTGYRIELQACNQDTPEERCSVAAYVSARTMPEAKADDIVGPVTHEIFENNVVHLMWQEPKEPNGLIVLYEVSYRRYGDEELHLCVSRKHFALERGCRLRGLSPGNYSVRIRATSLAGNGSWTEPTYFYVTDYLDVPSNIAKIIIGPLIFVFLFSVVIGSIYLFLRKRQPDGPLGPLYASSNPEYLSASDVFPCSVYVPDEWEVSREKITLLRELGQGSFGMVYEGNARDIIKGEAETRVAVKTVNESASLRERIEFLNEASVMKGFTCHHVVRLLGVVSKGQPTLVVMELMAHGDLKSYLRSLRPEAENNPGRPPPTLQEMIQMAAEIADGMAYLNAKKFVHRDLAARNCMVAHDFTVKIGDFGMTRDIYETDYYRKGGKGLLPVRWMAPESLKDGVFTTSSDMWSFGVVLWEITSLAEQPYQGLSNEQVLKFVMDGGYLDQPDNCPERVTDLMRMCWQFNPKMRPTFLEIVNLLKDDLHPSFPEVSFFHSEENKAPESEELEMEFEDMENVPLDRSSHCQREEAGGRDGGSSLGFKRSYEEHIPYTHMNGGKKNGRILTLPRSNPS

bioavailability [1]: 0%
IC50 (PC-3 [2]): 148 nM
SMILES: O=C1CN(CCC2CCOCC2)c2nc(-c3ccc(-c4nc[nH]n4)cc3)cnc2N1

IC50 [3]: 18 nM
IC50 (mTORC1): 40 nM
activity at 10 µM [4]: 93%
bioavailability [1]: 0.85%
IC50 (PC-3 [2]): 224 nM
SMILES: O=c1[nH]c2ncc(-c3ccc(-c4nc[nH]n4)cc3)nc2n1CCC1CCOCC1

fraction unbound at 24 h [6]: 0.35
concentration at 4 h [8]: 5320 nM
concentration at 24 h [9]: 190 nM
Cp(f) (Plasma [10]): 850 nM
Cp(f) (Plasma [11]): 1860 nM
AUC(0-inf) [13]: 10.8 µM·h
clearance [14]: 8.1 mL/min/kg
concentration at 24 h [15]: 190 nM
concentration at 8 h [16]: 2420 nM
IC50 [17]: > 30000 nM
concentration at 2 h [18]: 4100 nM
Cmax [20]: 3300 nM
concentration at 2 h [21]: 6830 nM
Tmax [22]: 1.2 h
MRT [24]: 2.7 h
Cp(f) (Plasma [25]): 2390 nM
Vd [26]: 1.3 L/kg
concentration at 4 h [28]: 2870 nM
bioavailability [1]: 100%
Cp(f) (Plasma [32]): 70 nM
AUC(0-inf) [34]: 28 µM·h
concentration at 8 h [37]: 1760 nM
SMILES: CC(C)(O)c1ccc(-c2cnc3c(n2)N(CC2CCOCC2)CC(=O)N3)cn1
TGI (PC-3 [5]): Active
inhibition in vivo at 30 mg/kg (Mus musculus [7]): 28%
TGI (PC-3 [12]): Dose-dependent effect
inhibition in vivo at 30 mg/kg (Mus musculus [19]): 87%
inhibition in vivo at 30 mg/kg (Mus musculus [23]): 43%
TGI (PC-3 [27]): Active
inhibition in vivo at 25 mg/kg (PC-3 [29]): 63%
inhibition in vivo at 30 mg/kg (Mus musculus [30]): 53%
TGI (PC-3 [31]): Active
inhibition in vivo at 10 mg/kg (PC-3 [33]): 18%
inhibition in vivo at 50 mg/kg (PC-3 [35]): 84%
Activity (Mus musculus [36]): Non-toxic

IC50 [3]: 2550 nM
IC50 (mTORC1): 2410 nM
IC50 [17]: > 30000 nM
IC50 (PC-3 [2]): 4180 nM
SMILES: CC(C)(O)c1ccc(-c2cnc3[nH]c(=O)n(CC4CCOCC4)c3n2)cn1
